Columns and labels:
[1] = tested on: type I BMP receptor-dependent p-Smad; test: Western blot of p-Smad in presence or absence of Dorsomorphin; format: cell-based, mouse; conditions: 10 µM inhibitor, compounds 1 µM, 30 min
Protocol: Total whole cell lysates were prepared and used for Western blot analysis of Smad phosphorylation using anti-p-Smad antibodies.
C2C12 cells (3 mL) were seeded into 35 mm dishes at 7.5 × 10^4 cells/mL in complete growth medium, incubated to reach 80% confluence and serum-starved for 16–18 h. […] Thereafter, the cultures were washed with ice-cold 1X TBS for 2 min. Lysis Buffer (Cell Signaling Technology, Danvers, MA, USA) supplemented with 1 mM PMSF (phenylmethylsulphonyl fluoride) was added to the cultures and whole cell lysates were prepared.
Laemmli sample buffer (4X) was added to the whole cell lysates (20 µg) to a final concentration of 1X and heated at 100 °C for 5 min. The samples were immediately cooled on ice for 5 min and centrifuged at 9500 rpm for 2 min at RT. The samples and the Precision Plus Protein Standard (5 µL; Bio-Rad, Hercules, CA, USA) were loaded on 12% SDS polyacrylamide gels. Protein was separated using the Bio-Rad Mini Protean II Gel Electrophoresis System at 135 V. Meanwhile, 0.2 µm nitrocellulose membranes were pre-incubated in cold 1X Transfer Buffer (10 mM Tris/2.5 mM glycine/20% methanol) for at least 30 min. Next, the separated proteins were transferred at 100 V onto the pre-equilibrated nitrocellulose membranes for 1 h in Transfer Buffer, followed by blocking in 5% BSA/0.1% Tween 20/1X TBS for 30 min. The membranes were incubated overnight at 4 °C with the desired primary rabbit monoclonal antibody (p-Smad1/5(S463/465)/9(S465/467), Smad1 (D5907) XP®, p-Akt (Ser473) (D9E) XP®, or Akt (pan) (C67E7), p-SAPK/JNK (Thr183/Tyr185), SAPK/JNK, β-actin (Cell Signaling Technologies, Danvers, MA, USA)) or rabbit polyclonal antibody (phospho-PI3 Kinase p85 (Tyr458)/p55 (Tyr199) antibody (Cell Signaling Technologies, Danvers, MA, USA), p-p38 MAPK, p38 MAPK, p-ERK1, ERK1/2) (Abclonal, Woburn, MA, USA)) in Antibody Dilution Buffer (1% BSA/0.1% Tween 20/1X TBS) and then washed with 1X TBST (0.1% Tween 20/1X TBS) three times for 15 min. HRP-conjugated Goat Anti-Rabbit IgG secondary antibody (Santa Cruz Biotechnology, Inc., Dallas, TX, USA) in Antibody Dilution Buffer was added to the membranes for 1 h at RT followed by three 15-min washes with 1X TBST. Finally, the blots were developed using SuperSignal ™ West Femto HRP Substrate solutions (Thermo Scientific, Rockford, IL, USA) and analysed using the Omega Lum™ G Imaging System (San Francisco, CA, USA). Quantification of chemiluminescent signals was carried out using ImageJ (Image Processing and Analysis in Java 1.8.0_112).

[2] = tested on: C2C12 cells; test: Cell viability assay in presence or absence of Dorsomorphin; format: cell-based, mouse; conditions: 10 µM inhibitor, 24 h
Protocol: To resolve whether the SY-LB-35 or SY-LB-57 compound requires type I BMP receptor activity for the induction of cell viability in C2C12 cells, cell viability assays were carried out in the presence or absence of 10 µM DM.
C2C12 cells (100 µL) were seeded in a 96-well plate at 5 × 10^5 cells/mL and incubated overnight in complete growth media to achieve 80% confluency followed by serum-starvation for 16–18 h. […] For BMP receptor inhibition, cell viability assays were carried out in presence or absence of Dorsomorphin (DM; 10 µM; Sigma Aldrich, St. Louis, MO, USA), a non-selective inhibitor of type I BMP receptor activity.
(§1) Next, reagents from the RealTime-Glo™ MT Cell Viability Assay Kit (Promega, Madison, WI, USA) were diluted in SS medium and used according to manufacturer’s protocol. Cellular luminescence was measured using the FilterMax F5 Multi-mode Microplate Reader (Molecular Devices, San Jose, CA, USA). Data from three independent experiments with individual experiments carried out in triplicate was determined and reported as a percentage of control.

[3] = tested on: p-Smad; design: method as in PMID 30602563; conditions: 30-min stimulation assays; cited from earlier work
[4] = tested on: C2C12 cells; test: RealTime-Glo MT cell viability assay; format: cell-based, mouse; conditions: C2C12, 24 h, Supplemental Fig. S3
Protocol: To first determine how these novel compounds effect the health of C2C12 cells and to establish the range of subtoxic concentrations for future studies, cell viability assays were carried out. Serum-starved C2C12 cells were exposed to increasing concentrations (0.01–1000 µM) of SY-LB-35 and SY-LB-57 for 24 h. Exposure to Triton X-100 (125 µM) is toxic to cells and was used as a negative control for cell viability. Following the 24-h exposure period, the MT Cell viability substrate was added to the cultures. Only viable cells can reduce the substrate and, thereby, generate a luminescent signal. Any decrease in luminescence was considered an indication of cell death or toxicity.
C2C12 cells (100 µL) were seeded in a 96-well plate at 5 × 10^5 cells/mL and incubated overnight in complete growth media to achieve 80% confluency followed by serum-starvation for 16–18 h.
as §1

Molecule: c1cc(-c2cnn3cc(-c4ccc(OCCN5CCCCC5)cc4)cnc23)ccn1 [DM, Dorsomorphin, reference compound]
- Effect of inhibitor on p-Smad increase induced by SY-LB-35 and SY-LB-57 [1]: completely prevented the increase in p-Smad levels
- Effect of inhibitor on cell viability increases stimulated by SY-LB-35 and SY-LB-57 [2]: complete inhibition of the cell viability increases

Molecule: Brc1ccc(CSc2nc3ccccc3o2)cc1 [sb4, reference compound]
- Increase in p-Smad levels over control [3]: twofold

Molecule: BMP9: recombinant BMP family member
- Effect on cell viability [4]: Increases in cell viability

B1: BMP4: BMP ligand used as comparator in the literature study (protein, UniProt P12644 293-408, looked up)
Bone morphogenetic protein 4: SPKHHSQRARKKNKNCRRHSLYVDFSDVGWNDWIVAPPGYQAFYCHGDCPFPLADHLNSTNHAIVQTLVNSVNSSIPKACCVPTELSAISMLYLDEYDKVVLKNYQEMVVEGCGCR
- Increase in p-Smad levels over control [3]: 11 fold

B2: BMP6: recombinant BMP family member (protein, UniProt P22004 375-513, looked up)
Bone morphogenetic protein 6: SASSRRRQQSRNRSTQSQDVARVSSASDYNSSELKTACRKHELYVSFQDLGWQDWIIAPKGYAANYCDGECSFPLNAHMNATNHAIVQTLVHLMNPEYVPKPCCAPTKLNAISVLYFDDNSNVILKKYRNMVVRACGCH
- Effect on cell viability [4]: Increases in cell viability

B3: BMP7: recombinant BMP family member (protein, UniProt P18075 293-431, looked up)
Bone morphogenetic protein 7: STGSKQRSQNRSKTPKNQEALRMANVAENSSSDQRQACKKHELYVSFRDLGWQDWIIAPEGYAAYYCEGECAFPLNSYMNATNHAIVQTLVHFINPETVPKPCCAPTQLNAISVLYFDDSSNVILKKYRNMVVRACGCH
- Effect on cell viability [4]: Increases in cell viability

Source: PMC9287337 (Scientific Reports, 2022)
